Results reported in patent publication US6562873B2, “Compositions containing therapeutically active components having enhanced solubility” (Allergan, Inc., priority 2000, dated 2003).
Where two headings read alike, the source gives them in different places. Marks after values point to notes of the source that are not given here.

Assays:
[1] = for Solubility: 23° C., 2 days stirring, theoretical concentration based on sample weight, all dissolved
Description: Table 1. It will be understood that concentrations of adrenergic agonists other than 0.5% may be used, so long as they have therapeutic activity. Likewise, the temperature may be varied, for example, solubility curves may be performed at 37° C. (98.6° F.). The formulation vehicle was prepared by first dissolving polyvinyl alcohol (PVA) in water. The PVA was added to approximately ⅓ of the required total amount of purified water with constant stirring. The slurry was stirred for 20-30 minutes and then heated to 80-95° C. with constant stirring. The mixture was removed from the heat source within 1 hour after having reached the temperature of 80-90° C. and stirred for an additional 10 minutes to ensure homogeneity (Part I). The other ingredients of the Ophthalmic Solution, except for Brimonidine tartrate, were dissolved in a separate container with an additional ⅓ of the required total amount of purified water (Part II). The PVA mixture (Part I) was then quantitatively transferred to Part II using several rinse volumes of purified water. The solution was adjusted to final volume with purified water without pH adjustment.
Brimonidine tartrate was weighed and transferred to a 10 mL test tube containing 5 mL of the formulation vehicle described above. The pH of each sample was then adjusted to a desired value using dilute sodium hydroxide and/or dilute hydrochloric acid. The samples were placed in a rack on a stir plate and stirred at high speed to achieve uniform mixing for 2 days; a partition was placed between the rack and the stir plate to prevent any heat diffusion from the stir plate to the samples.
At the end of two days of stirring, the pH value of each sample was measured, and then approximately 1 mL of each sample was placed in a micro centrifuge tube (polypropylene) and centrifuged at 4,000 rpm for 10 minutes. The supernatant was filtered through a 1 μm filter unit (Whatman, 13 mm, PTFE). The first 3-4 drops of the filtrate were discarded; the rest of the filtrate was received and diluted quantitatively with HPLC mobile phase. […] A control of […] Brimonidine tartrate was prepared in the formulation vehicle at pH 6.3-6.5 and assayed before (untreated) and after (treated) centrifugation and filtration. This was done to evaluate the potential loss of Brimonidine tartrate in these two steps of the sample preparation. To ensure reproducibility, the study was repeated on consecutive days.

[2] = for Solubility of Brimonidine tartrate (%): 15 days; for soluble Brimonidine tartrate: FIG. 1
Description: The pH-solubility profiles of Brimonidine tartrate in compositions (solutions) containing SECs and oxy-chloro components were determined. Particularly, the effects of sodium carboxymethylcellulose (CMC), an SEC, on the solubility of Brimonidine tartrate at various pH conditions were determined. The various concentrations of CMC tested with Brimonidine tartrate were 0%, 0.056%, 0.17%, 0.5%, 1.5% (w/v), Table III.
The samples tested also contained isotonic components, buffer components, and stabilized chlorine dioxide (Purite™), Table III. Sodium carboxymethyl-cellulose, sodium chloride, potassium chloride, calcium chloride dihydrate, and magnesium chloride hexahydrate were USP grade. Boric acid and sodium borate decahydrate were NF grade.
Each sample (1 through 5) was subjected to a range of pH's from about 7 to about 10. The vials containing the sample solutions were placed on a laboratory rotator and left for equilibration for fifteen days at room temperature (^˜21° C.). The sample solutions were filtered using a 25 mm diameter polysulfone cellulose acetate syringe type filter with 0.45 μm pore size. The filtered solutions were assayed for Brimonidine.
Conventional HPLC and detection techniques were used to detect and determine the concentrations of soluble Brimonidine tartrate. […] The solubility is plotted against pH for each CMC concentration. The experimental data points were fitted to a modified Henderson-Hasselbalch equation using a nonlinear least squares routine (Deltagraph version 4.0 DeltaPoint, Inc.), FIG. 1.

**Q.** For “5-bromo-6-(2-imidozolin-2-ylamino) quinoxaline [Brimonidine tartrate]”, which “Concentration of Brimonidine tartrate in control after centrifugation and filtration step” value ([1]; Control (treated), formulation vehicle at pH 6.3-6.5, Study 1) is on record?
**A.** 0.484^d % w/v

**Q.** What about the “Concentration of Brimonidine tartrate in control before centrifugation and filtration step” value ([1]; Control (untreated), formulation vehicle at pH 6.3-6.5, Study 1) of the same substance?
**A.** 0.486^c % w/v

**Q.** What about the Solubility ([1]; Study 1, sample 1, pH 5.55, Ophthalmic Solution vehicle) of the same substance?
**A.** ≦164.4^b % w/v

**Q.** What about the Solubility ([1]; Study 2, sample 1, pH 5.50, Ophthalmic Solution vehicle) of the same substance?
**A.** ≦200.6^b % w/v

**Q.** What about the “Solubility of Brimonidine tartrate (%)” value ([2]; 0% CMC, pH 6.68, room temperature (~21° C.)) of the same substance?
**A.** 1.4256%

**Q.** And the “Solubility of Brimonidine tartrate (%)” value ([2]; 0% CMC, pH 7.11, room temperature (~21° C.))?
**A.** 0.2064%

**Q.** And the “Solubility of Brimonidine tartrate (%)” value ([2]; 0% CMC, pH 7.68, room temperature (~21° C.))?
**A.** 0.0786%

**Q.** And the “Solubility of Brimonidine tartrate (%)” value ([2]; 0% CMC, pH 8.50, room temperature (~21° C.))?
**A.** 0.0286%

**Q.** And the “Solubility of Brimonidine tartrate (%)” value ([2]; 0% CMC, pH 10.09, room temperature (~21° C.))?
**A.** 0.0218%

**Q.** What about the “Solubility of Brimonidine tartrate (%)” value ([2]; 0.056% CMC, pH 6.67, room temperature (~21° C.)) of the same substance?
**A.** 0.9302%

**Q.** And the “Solubility of Brimonidine tartrate (%)” value ([2]; 0.056% CMC, pH 7.11, room temperature (~21° C.))?
**A.** 0.2828%

**Q.** What about the “Solubility of Brimonidine tartrate (%)” value ([2]; 0.056% CMC, pH 7.77, room temperature (~21° C.)) of the same substance?
**A.** 0.0721%

**Q.** What about the “Solubility of Brimonidine tartrate (%)” value ([2]; 0.056% CMC, pH 9.93, room temperature (~21° C.)) of the same substance?
**A.** 0.0234%

**Q.** What about the “Solubility of Brimonidine tartrate (%)” value ([2]; 0.17% CMC, pH 6.68, room temperature (~21° C.)) of the same substance?
**A.** 1.4200%

**Q.** And the “Solubility of Brimonidine tartrate (%)” value ([2]; 0.17% CMC, pH 6.93, room temperature (~21° C.))?
**A.** 0.7302%

**Q.** What about the “Solubility of Brimonidine tartrate (%)” value ([2]; 0.17% CMC, pH 7.81, room temperature (~21° C.)) of the same substance?
**A.** 0.0735%

**Q.** And the “Solubility of Brimonidine tartrate (%)” value ([2]; 0.17% CMC, pH 8.55, room temperature (~21° C.))?
**A.** 0.0328%

**Q.** And the “Solubility of Brimonidine tartrate (%)” value ([2]; 0.17% CMC, pH 10.05, room temperature (~21° C.))?
**A.** 0.0241%

**Q.** What about the “Solubility of Brimonidine tartrate (%)” value ([2]; 0.5% CMC, pH 6.67, room temperature (~21° C.)) of the same substance?
**A.** 1.4464%

**Q.** What about the “Solubility of Brimonidine tartrate (%)” value ([2]; 0.5% CMC, pH 7.10, room temperature (~21° C.)) of the same substance?
**A.** 0.3693%

**Q.** And the “Solubility of Brimonidine tartrate (%)” value ([2]; 0.5% CMC, pH 7.56, room temperature (~21° C.))?
**A.** 0.1451%

**Q.** And the “Solubility of Brimonidine tartrate (%)” value ([2]; 0.5% CMC, pH 8.46, room temperature (~21° C.))?
**A.** 0.0313%

**Q.** What about the “Solubility of Brimonidine tartrate (%)” value ([2]; 0.5% CMC, pH 9.94, room temperature (~21° C.)) of the same substance?
**A.** 0.0250%

**Q.** And the “Solubility of Brimonidine tartrate (%)” value ([2]; 1.5% CMC, pH 7.35, room temperature (~21° C.))?
**A.** 0.1904%

**Q.** And the “Solubility of Brimonidine tartrate (%)” value ([2]; 1.5% CMC, pH 8.10, room temperature (~21° C.))?
**A.** 0.0498%

**Q.** What about the “Solubility of Brimonidine tartrate (%)” value ([2]; 1.5% CMC, pH 8.67, room temperature (~21° C.)) of the same substance?
**A.** 0.0311%

**Q.** What about the “Solubility of Brimonidine tartrate (%)” value ([2]; 1.5% CMC, pH 10.11, room temperature (~21° C.)) of the same substance?
**A.** 0.0222%

**Q.** What about the “effect of CMC concentration on solubility” value ([2]; FIG. 1, 0-1.5% CMC) of the same substance?
**A.** tends to increase with increasing CMC concentrations

**Q.** What about the “soluble Brimonidine tartrate” value ([2]; pH 7.5, 0% CMC) of the same substance?
**A.** 1000 ppm

**Q.** And the “soluble Brimonidine tartrate” value ([2]; pH 7.5, 0.056% CMC)?
**A.** 1300 ppm

**Q.** What about the “soluble Brimonidine tartrate” value ([2]; pH 7.5, 0.17% CMC) of the same substance?
**A.** 1300 ppm

**Q.** And the “soluble Brimonidine tartrate” value ([2]; pH 7.5, 0.5% CMC)?
**A.** 1600 ppm

**Q.** And the “soluble Brimonidine tartrate” value ([2]; pH 7.5, 1.5% CMC)?
**A.** about 1400 ppm
